Measured values taken from PubChem BioAssay (NCI).
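Abbreviation: GI50, concentration required for 50% inhibition of growth. The concentration for full growth arrest is given as TGI.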

Experiments:
Experiment in all cases: NCI anticancer screen, dose series, 384-well format
TK-10 renal = test system: TK-10 renal
OVCAR-8 ovarian = test system: OVCAR-8 ovarian
SNB-75 CNS = test system: SNB-75 CNS
MDA-MB-468 breast = test system: MDA-MB-468 breast
NCI-H226 lung = test system: NCI-H226 lung
A498 renal = test system: A498 renal
RXF 393 renal = test system: RXF 393 renal
PC-3 prostate = test system: PC-3 prostate
T-47D breast = test system: T-47D breast
NCI-H23 lung = test system: NCI-H23 lung
HCT-15 colon = test system: HCT-15 colon
IGROV1 ovarian = test system: IGROV1 ovarian
M14 melanoma = test system: M14 melanoma

`C[C@@H]1CN(CC(=O)N2CC(C)(C)c3nc(CO)c(Cc4ccc(F)cc4)cc32)[C@@H](CN2CCOC[C@H]2C)CN1` showed a GI50 (TK-10 renal) of 27.9 µM, a TGI (TK-10 renal) of 52.9 µM and a GI50 (OVCAR-8 ovarian) of 17.7 µM. It also gave a TGI (OVCAR-8 ovarian) of 47.8 µM, a GI50 (SNB-75 CNS) of 16.3 µM and a TGI (SNB-75 CNS) of 41.6 µM. It also gave a GI50 (MDA-MB-468 breast) of 0.483 µM, a TGI (MDA-MB-468 breast) of 14.8 µM and a GI50 (NCI-H226 lung) of 40.4 µM. The TGI (NCI-H226 lung) was over 82.3 µM, the GI50 (A498 renal) was 21.5 µM and the TGI (A498 renal) was 53.2 µM. It also gave a GI50 (RXF 393 renal) of 0.175 µM, a TGI (RXF 393 renal) of 6.79 µM and a GI50 (PC-3 prostate) of 65.2 µM. The TGI (PC-3 prostate) was over 100 µM, the GI50 (T-47D breast) was 22.4 µM and the TGI (T-47D breast) was 49 µM. The GI50 (NCI-H23 lung) was 24.8 µM, the TGI (NCI-H23 lung) was 99.2 µM and the GI50 (HCT-15 colon) was 27.7 µM. For the same compound, the TGI (HCT-15 colon) was over 83.3 µM, the GI50 (IGROV1 ovarian) was 61.4 µM and the TGI (IGROV1 ovarian) was over 100 µM. The GI50 (M14 melanoma) was 17.2 µM and the TGI (M14 melanoma) was 31.1 µM.
